Source: US11634412B2, “3-phosphoglycerate dehydrogenase inhibitors and uses thereof” (Raze Therapeutics, Inc., priority 2016, dated 2023)

Molecular target: T1, Full length (FL) 3-Phosphoglycerate Dehydrogenase (PHGDH) (Homo sapiens, UniProt O43175)
T1 construct: Full length (FL) 3-Phosphoglycerate Dehydrogenase (PHGDH) Diaphorase coupled assay (500 uM NAD)
T1 sequence (O43175 1-533): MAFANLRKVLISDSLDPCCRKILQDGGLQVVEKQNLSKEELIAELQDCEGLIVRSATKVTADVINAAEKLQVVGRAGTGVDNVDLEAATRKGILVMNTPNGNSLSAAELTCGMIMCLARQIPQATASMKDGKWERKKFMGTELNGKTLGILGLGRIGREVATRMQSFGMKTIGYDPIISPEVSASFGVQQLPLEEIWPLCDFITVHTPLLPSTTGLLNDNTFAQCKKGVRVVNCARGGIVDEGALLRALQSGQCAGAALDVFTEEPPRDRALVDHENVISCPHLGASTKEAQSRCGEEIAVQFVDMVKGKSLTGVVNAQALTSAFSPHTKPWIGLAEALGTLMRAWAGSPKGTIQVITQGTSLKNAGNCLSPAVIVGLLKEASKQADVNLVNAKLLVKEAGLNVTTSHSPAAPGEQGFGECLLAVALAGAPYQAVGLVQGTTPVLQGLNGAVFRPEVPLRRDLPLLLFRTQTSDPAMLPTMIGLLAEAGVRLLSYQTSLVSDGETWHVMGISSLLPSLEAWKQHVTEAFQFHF
Experiment: Full length (FL) PHGDH Diaphorase coupled assay (20 uM NAD)
Type: biochemical
Settings: full-length PHGDH 10 nM, 30° C. 60 minutes, resorufin fluorescence
Experimental: PHGDH activity was determined by detecting the NADH produced during the reaction. Diaphorase was used to catalyze the oxidation of NADH with the concomitant reduction of resazurin to the fluorescent product resorufin. Resorufin fluorescence quantitatively reflected the production of NADH by the PHGDH reaction. To drive the forward reaction, two enzymes in the serine synthesis pathway subsequent to PHGDH, Phosphoserine aminotransferase (PSAT1) and phosphoserine phosphatase (PSPH) were also added to the reaction.

| SMILES | IC50 |
| --- | --- |
| Cn1c(C(=O)NC2(c3ccccc3)CCN(S(=O)(=O)Nc3cnccn3)CC2)cc2c(Cl)c(Cl)ccc21 [I-152 e3] | 1 to 5 µM |
| CC(=O)Nc1cccc(C2(NC(=O)c3cc4c(Cl)c(Cl)ccc4n3C)CCN(S(=O)(=O)NC(C)=O)CC2)c1 [I-153 e2] | 5 to 10 µM |
| CC(=O)NS(=O)(=O)N1CCC(NC(=O)c2cc3c(Cl)c(Cl)ccc3n2C)(c2cccc(C#N)c2)CC1 [I-154 e4] | 5 to 10 µM |
